Read-outs that look alike come from different tables or passages of the source.
Legend:
[1] = system: pain reaction of the mouse caused by a clamp; test: Analgesic activity, Haffner method; type: in vivo, mice (ddy strain, male); settings: for Analgesic activity, Haffner method, inhibitory ratio: mice
Experimental: (§1) Next, several tests for determining the pharmacological properties, in that acute toxicity, anti-pyretic activity, analgesic activity and anti-inflammatory activity of the present 1,3,5-substituted biuret compounds of the formula (1) were conducted and the test results are shown in Table (2). In the tests, each compounds to be tested was used as a suspension in 0.25% carboxymethylcellulose solution. Methods for testing are explained as follows:
According to the modified method reported by Fujimura et al., [Bulletin of the Institute for Chemical Research, Kyoto University, No. 25, pp. 36 (1951)], the ddy strain of male mice (body weight, 20-25 g) were used as test animals. The mice were fasted overnight, 100 mg/kg body weight of the test compound was administered orally, then 45 minutes after the administration, the threshhold amount (1.5-2.5 mg/kg body weight) of morphine hydrochloride was injected subcutaneously. Then 1-hour pain reaction of the mouse caused by a clamp was observed. Analgesic activity of the test compound was calculated as the inhibitory ratio (%). In Table 2, the values in parentheses show the data obtained from the test by using the dosage other than 100 mg/kg body weight. Further, the values indicated with Δ marks show 50% effective dose, ED50 (mg/kg body weight).

ddy strain of male mice = test: Acute toxicity (oral, general symptom and death observed for 7 days); type: in vivo; settings: for Acute toxicity, death number of mice/number of mice tested: 7 days
Experimental: as §1
The ddy strain of male mice (body weight, 20-25 g) were used as test animals. The mice were fasted overnight and the compound to be tested was administered orally. […] The lethal dose (mg/kg, body weight) of the test compound was determined in connection with the death number of mice/the number of mice tested. In Table 2, the values indicated with Δ marks are 50% lethal dose, LD50 (mg/kg, body weight).

[2] = system: 10% dry-yeast suspension-induced fever of rats; test: Anti-pyretic activity (dry-yeast induced fever, febril index); type: in vivo, rats (Wistar strain, male); settings: oral, febril index up to 4 hours after administration, dose not stated
Experimental: as §1
According to the method reported by Tanabe [Folia Pharmacologia Japonica, Vol. 73, pp. 803 (1977)], the Wistar strain of male rats (150-180 g body weight) were used as test animals. The rats were fasted overnight, and 1 ml/100 g (body weight) of 10% dry-yeast suspension were subcutaneously injected on the back of the rats. Five hours afte the injection, the test compound was administered orally, then the body temperature of the rat was measured time sequences. Anti-pyretic activity of the test compound was determined as the FI (febril index) by integrating pyrogenetic curve up to 4 hours after the administration of the test compound with time, and indicated as inhibitory ratio (%) shown by the following formula, [formula]

[3] = system: acetic acid-induced stretching symptom of mouse; test: Analgesic activity, acetic acid-induced stretching method; type: in vivo, mice (ddy strain, male); settings: read-out: Analgesic activity, acetic acid-induced stretching method, inhibitory ratio
Experimental: as §1
(1) Acetic acid-induced stretching method
According to the method reported by Koster et.al., [Fed. Proc., Vol. 18, pp. 412 (1959)], the ddy strain of male mice (body weight, 20-25 g) were used as test animals. The mice were fasted overnight, 100 mg/kg body weight of the test compound was administered orally, then 1 hour after the administration, 0.2 ml of 0.7% acetic acid solution was injected intraperitoneally. The acetic acid-induced stretching symptom of mouse was observed. Analgesic activity of the test compound was calculated as the inhibitory ratio (%). In Table 2, the values in parentheses show the data obtained from the test by using the dosage other than 100 mg/kg body weight. Further, the values indicated with Δ marks show 50% effective dose, ED50 (mg/kg body weight).

[4] = system: carrageenin-induced inflammation of the hindpaw of the rat; test: Anti-inflammatory activity, acute carrageenin-induced inflammatory test; type: in vivo, rats (Wistar strain, male); settings: for inhibition in vivo at 100 mg/kg / inhibition in vivo at 200 mg/kg: Rattus norvegicus, read-out: Anti-inflammatory activity, inflammation inhibitory ratio
Experimental: as §1
4. Anti-inflammatory Activity
According to the method of acute carrageenin-induced inflammatory test [Folia Pharmacologia Japonica, Vol. 56, pp. 575 (1960)], the Wistar strain of male rats (body weight, 150-180 g) were used as test animals. The rats were fasted overnight, 100 mg/kg body weight of the test compound was administered orally, then 1 hour after the administration, 0.1 ml of 1% carrageenin solution, as the inflammation inducing agent, was injected subcutaneously to the hindpaw of the rat and the volume of the hindpaw was measured at time sequences. Anti-inflammatory activity of the test compound was calculated as inflammation inhibitory ratio (%) at 3 hours after the injection of inflammation inducing agent.

[5] = 100 mg/kg oral, rats, 3 hours after carrageenin

CCNC(=O)N(C)C(=O)Nc1ccc(F)cc1 [compound 32, 1-Ethyl-3-methyl-5-(4-fluorophenyl)biuret]
Analgesic activity, Haffner method, inhibitory ratio ([1]; 100 mg/kg oral): 37.5% | Acute toxicity, death number of mice/number of mice tested (ddy strain of male mice; 1000 mg/kg oral): 2/4 | Acute toxicity, death number of mice/number of mice tested (ddy strain of male mice; 2000 mg/kg oral): 4/4 | Anti-pyretic activity, inhibitory ratio [2]: 63% | inhibition in vivo at 100 mg/kg ([3]; 100 mg/kg oral, mice): 100%

CCCCCNC(=O)N(C)C(=O)Nc1ccccc1 [compound 52, 1-n-Pentyl-3-methyl-5-phenylbiuret]
Analgesic activity, Haffner method, inhibitory ratio ([1]; 100 mg/kg oral): 37.5% | Acute toxicity, death number of mice/number of mice tested (ddy strain of male mice; 2000 mg/kg oral): 0/4 | Anti-pyretic activity, inhibitory ratio [2]: 38% | inhibition in vivo at 100 mg/kg ([3]; po): 62.5%

CC(C)NC(=O)N(C)C(=O)Nc1ccccc1 [Compound No. 43, 1-Isopropyl-3-methyl-5-phenylbiuret]
Analgesic activity, Haffner method, inhibitory ratio ([1]; 100 mg/kg oral): 25% | Acute toxicity, death number of mice/number of mice tested (ddy strain of male mice; 2000 mg/kg oral): 0/4 | Anti-pyretic activity, inhibitory ratio [2]: 38% | inhibition in vivo at 100 mg/kg ([4]; po, 3 h): 51% | inhibition in vivo at 100 mg/kg ([3]; po): 50%

CNC(=O)N(C)C(=O)Nc1ccccc1Cl [Compound No. 5, 1,3-Dimethyl-5-(2-chlorophenyl)biuret]
Analgesic activity, Haffner method, inhibitory ratio ([1]; 200 mg/kg oral): 37.5% | Acute toxicity, death number of mice/number of mice tested (ddy strain of male mice; 2000 mg/kg oral): 0/4 | Anti-pyretic activity, inhibitory ratio [2]: 28% | inhibition in vivo at 200 mg/kg ([4]; 200 mg/kg oral, rats, 3 hours after carrageenin): 53% | inhibition in vivo at 200 mg/kg ([3]; po): 37.5%

CCC(C)NC(=O)N(C)C(=O)Nc1ccccc1 (centres unmarked) [compound 50, 1-(1-Methylpropyl)-3-methyl-5-phenylbiuret]
Analgesic activity, Haffner method, inhibitory ratio ([1]; 100 mg/kg oral): 25% | Acute toxicity, death number of mice/number of mice tested (ddy strain of male mice; 2000 mg/kg oral): 0/4 | Anti-pyretic activity, inhibitory ratio [2]: 27% | inhibition in vivo at 100 mg/kg ([4]; po, 3 h): 47% | inhibition in vivo at 100 mg/kg ([3]; po): 62.5%

CCNC(=O)N(C)C(=O)Nc1ccc(OC)cc1 [compound 35, 1-Ethyl-3-methyl-5-(4-methoxyphenyl)biuret]
Analgesic activity, Haffner method, inhibitory ratio ([1]; 100 mg/kg oral): 62.5% | Acute toxicity, death number of mice/number of mice tested (ddy strain of male mice; 1000 mg/kg oral): 0/4 | Acute toxicity, death number of mice/number of mice tested (ddy strain of male mice; 2000 mg/kg oral): 4/4 | Anti-pyretic activity, inhibitory ratio [2]: 112% | inhibition in vivo at 100 mg/kg [4, 5]: 19% | inhibition in vivo at 100 mg/kg ([3]; 100 mg/kg oral, mice): 87.5%

CNC(=O)N(C)C(=O)Nc1nccs1 [compound 20]
Analgesic activity, Haffner method, inhibitory ratio ([1]; 100 mg/kg oral): 25% | Acute toxicity, death number of mice/number of mice tested (ddy strain of male mice; 1000 mg/kg oral): 3/4 | Anti-pyretic activity, inhibitory ratio [2]: 112% | inhibition in vivo at 100 mg/kg [4, 5]: 46% | inhibition in vivo at 100 mg/kg ([3]; 100 mg/kg oral, mice): 25%

CCCNC(=O)N(C)C(=O)Nc1ccccc1 [Compound No. 41, 1-n-Propyl-3-methyl-5-phenylbiuret]
Analgesic activity, Haffner method, inhibitory ratio ([1]; 100 mg/kg oral): 37.5% | Acute toxicity, death number of mice/number of mice tested (ddy strain of male mice; 2000 mg/kg oral): 0/4 | Anti-pyretic activity, inhibitory ratio [2]: 65% | inhibition in vivo at 100 mg/kg [4, 5]: 67% | inhibition in vivo at 100 mg/kg ([3]; po): 62.5%

CNC(=O)N(C)C(=O)Nc1ccccc1C(F)(F)F [compound 7, 1,3-Dimethyl-5-(2-trifluoromethylphenyl)biuret]
Analgesic activity, Haffner method, inhibitory ratio ([1]; 100 mg/kg oral): 12.5% | Acute toxicity, death number of mice/number of mice tested (ddy strain of male mice; 1000 mg/kg oral): 0/4 | Acute toxicity, death number of mice/number of mice tested (ddy strain of male mice; 2000 mg/kg oral): 3/4 | Anti-pyretic activity, inhibitory ratio [2]: 121% | inhibition in vivo at 100 mg/kg ([3]; po): 62.5%

CC(C)CNC(=O)N(C)C(=O)Nc1ccccc1 [Compound No. 49, 1-Isobutyl-3-methyl-5-phenylbiuret]
ED50 ([1]; Mus musculus, oral, mice (Δ values; range in parentheses), read-out: Analgesic activity, Haffner method, 50% effective dose ED50): 50 mg/kg | Acute toxicity, death number of mice/number of mice tested (ddy strain of male mice; 2000 mg/kg oral): 0/4 | Anti-pyretic activity, inhibitory ratio [2]: 55% | inhibition in vivo at 100 mg/kg [4, 5]: 57% | inhibition in vivo at 40 mg/kg ([3]; po): 50%

CN(C(=O)Nc1ccccc1)C(=O)NC(C)(C)C [compound 51, 1-tert-Butyl-3-methyl-5-phenylbiuret]
Analgesic activity, Haffner method, inhibitory ratio ([1]; 100 mg/kg oral): 37.5% | Acute toxicity, death number of mice/number of mice tested (ddy strain of male mice; 2000 mg/kg oral): 0/4 | Anti-pyretic activity, inhibitory ratio [2]: 83% | inhibition in vivo at 100 mg/kg [4, 5]: 34% | inhibition in vivo at 100 mg/kg ([3]; po): 50%

CNC(=O)N(C)C(=O)Nc1ccc(CC(=O)O)cc1 [compound 11, 1,3-Dimethyl-5-(4-carboxymethylphenyl)biuret]
Analgesic activity, Haffner method, inhibitory ratio ([1]; 100 mg/kg oral): 37.5% | Acute toxicity, death number of mice/number of mice tested (ddy strain of male mice; 2000 mg/kg oral): 0/4 | Anti-pyretic activity, inhibitory ratio [2]: 7% | inhibition in vivo at 100 mg/kg ([3]; po): 25%

CNC(=O)N(C)C(=O)Nc1ccccc1F [Compound No. 4]
Analgesic activity, Haffner method, inhibitory ratio ([1]; 100 mg/kg oral): 25% | Acute toxicity, death number of mice/number of mice tested (ddy strain of male mice; 2000 mg/kg oral): 0/4 | Anti-pyretic activity, inhibitory ratio [2]: 79% | inhibition in vivo at 100 mg/kg [4, 5]: 41% | inhibition in vivo at 100 mg/kg ([3]; po): 37.5%

1,3-Dimethyl-5-(4-methyl-2-pyridyl)biuret [compound 18]
Analgesic activity, Haffner method, inhibitory ratio ([1]; 100 mg/kg oral): 25% | Acute toxicity, 50% lethal dose LD50 (ddy strain of male mice; oral, 7 days observation (Δ values)): 1500 mg/kg | Anti-pyretic activity, inhibitory ratio [2]: 60% | Anti-inflammatory activity, inflammation inhibitory ratio [4, 5]: 20%

CCNC(=O)N(C)C(=O)Nc1ccc(N(C)C)cc1 [compound 33, 1-Ethyl-3-methyl-5-(4-dimethylaminophenyl)biuret]
Analgesic activity, Haffner method, inhibitory ratio ([1]; 100 mg/kg oral): 25% | Acute toxicity, death number of mice/number of mice tested (ddy strain of male mice; 1000 mg/kg oral): 0/4 | Acute toxicity, death number of mice/number of mice tested (ddy strain of male mice; 2000 mg/kg oral): 4/4 | Anti-pyretic activity, inhibitory ratio [2]: 87% | inhibition in vivo at 100 mg/kg ([4]; po, 3 h): 30% | inhibition in vivo at 100 mg/kg ([3]; po): 62.5%

CCNC(=O)NC(=O)Nc1ccc(Cl)c(Cl)c1 [compound 27, 1-Ethyl-5-(3,4-dichlorophenyl)biuret]
Analgesic activity, Haffner method, inhibitory ratio ([1]; 200 mg/kg oral): 12.5% | Acute toxicity, death number of mice/number of mice tested (ddy strain of male mice; 1000 mg/kg oral): 0/4 | Acute toxicity, death number of mice/number of mice tested (ddy strain of male mice; 2000 mg/kg oral): 1/4 | inhibition in vivo at 200 mg/kg ([4]; po, 3 h): 44% | inhibition in vivo at 200 mg/kg ([3]; po): 12.5%

CCNC(=O)N(C)C(=O)Nc1ccc(C)c(C)c1 [compound 39, 1-Ethyl-3-methyl-5-(3,4-dimethylphenyl)biuret]
Analgesic activity, Haffner method, inhibitory ratio ([1]; 100 mg/kg oral): 37.5% | Acute toxicity, death number of mice/number of mice tested (ddy strain of male mice; 2000 mg/kg oral): 0/4 | Anti-pyretic activity, inhibitory ratio [2]: 8% | inhibition in vivo at 100 mg/kg ([3]; po): 50%

CN(C(=O)NCCC#N)C(=O)Nc1ccccc1 [compound 54, 1-(2-Cyanoethyl)-3-methyl-5-phenylbiuret]
Analgesic activity, Haffner method, inhibitory ratio ([1]; 100 mg/kg oral): 12.5% | Acute toxicity, death number of mice/number of mice tested (ddy strain of male mice; 1000 mg/kg oral): 0/4 | Acute toxicity, death number of mice/number of mice tested (ddy strain of male mice; 2000 mg/kg oral): 3/4 | inhibition in vivo at 100 mg/kg [4, 5]: 39% | inhibition in vivo at 100 mg/kg ([3]; po): 50%

CN(C)CCNC(=O)N(C)C(=O)Nc1ccccc1 [compound 55, 1-(2-Dimethylaminoethyl)-3-methyl-5-phenylbiuret]
Analgesic activity, Haffner method, inhibitory ratio ([1]; 100 mg/kg oral): 12.5% | Acute toxicity, death number of mice/number of mice tested (ddy strain of male mice; 500 mg/kg oral): 2/4 | Acute toxicity, death number of mice/number of mice tested (ddy strain of male mice; 1000 mg/kg oral): 3/4 | inhibition in vivo at 100 mg/kg [4, 5]: 22% | inhibition in vivo at 100 mg/kg ([3]; po): 12.5%

CCNC(=O)N(C)C(=O)Nc1ccc(C)cc1 [compound 38, 1-Ethyl-3-methyl-5-(4-methylphenyl)biuret]
Analgesic activity, Haffner method, inhibitory ratio ([1]; 100 mg/kg oral): 25% | Acute toxicity, death number of mice/number of mice tested (ddy strain of male mice; 1000 mg/kg oral): 0/4 | Acute toxicity, death number of mice/number of mice tested (ddy strain of male mice; 2000 mg/kg oral): 3/4 | Anti-pyretic activity, inhibitory ratio [2]: 80% | inhibition in vivo at 100 mg/kg ([3]; 100 mg/kg oral, mice): 87.5%
